Data reported in patent US8461170B2, “Chemical compounds” (Astrazeneca AB, priority 2010, dated 2013).

Biological target: T1, human ALK (Homo sapiens, UniProt Q9UM73)
T1 construct: GST (N); purchased Invitrogen, Carlsbad, Calif; (or prepared by AstraZeneca); host or cells: insect cells
Assay: ALK kinase mobility shift assay (Caliper LC3000)
Format: biochemical
Settings: cumulative geometric means including test re-runs, some obtained since the priority filings; ATP 30 μM (Km) or 5 mM, not specified which; read-out: ALK Enzyme IC50 (μM)**
Description: ALK kinase activity was determined by measuring the kinase's ability to phosphorylate a tyrosine residue within a peptide substrate using a mobility shift assay on a Caliper LC3000 reader (Caliper Life Sciences, Hopkinton, Mass.), which measures fluorescence of the phosphorylated and unphosphorylated substrate and calculates a ratiometric value to determine percent turnover.
To measure ALK kinase activity, the ALK enzyme used was N-terminal GST-tagged, recombinant, human ALK, amino acids 1058-1620 (Genbank Accession number NP_004295) expressed in insect cells and activated in-vitro via autophosphorylation. This was either purchased from a commercially available source (Invitrogen, Carlsbad, Calif.) or prepared by AstraZeneca. The kinase was incubated with a FAM labeled SRCtide substrate (5FAM-GEEPLYWSFPAKKK-NH2, AnaSpec, Fremont, Calif.), 30 μM adenosine triphosphate (ATP, at Km concentration) or 5 mM ATP, 50 mM HEPES buffer (pH 7.3), 1 mM DTT, 0.01% Tween 20, 50 μg/ml BSA and 10 mM MgCl2 for 90 minutes at room temperature. After this time, the kinase reaction was stopped by adding quenching buffer containing final concentrations of 36 mM ethylenediaminetetraacetic acid (EDTA), 65 mM HEPES buffer (pH 7.3), 0.2% Coatin Reagent 3 (Caliper Life Sciences, Hopkinton, Mass.), and 0.003% Tween 20. The reaction was performed in 384 well microtitre plates and the reaction products were detected using the Caliper LC3000 Reader in the presence of separation buffer consisting of 100 mM HEPES (pH 7.3), 15.8 mM EDTA, 0.1% Coatin Reagent 3 (Caliper, Mass.), 0.015% Brij-35, 5% DMSO, and 5.6 mM MgCl2. The separation conditions set up on the Caliper LC3000 were −1.7 PSI, −400V upstream voltage, −2000V downstream voltage, 0.2 second sample sip, 45 second post sip, and 150 seconds final delay. The percentage of inhibition of ALK enzyme activity by compounds were measured based on Max signals (DMSO control) and Min signals (EDTA control) in the plates. Data was graphed and IC50s calculated by IDBS ActivityBase program.

T1 sequence (Q9UM73 1058-1620): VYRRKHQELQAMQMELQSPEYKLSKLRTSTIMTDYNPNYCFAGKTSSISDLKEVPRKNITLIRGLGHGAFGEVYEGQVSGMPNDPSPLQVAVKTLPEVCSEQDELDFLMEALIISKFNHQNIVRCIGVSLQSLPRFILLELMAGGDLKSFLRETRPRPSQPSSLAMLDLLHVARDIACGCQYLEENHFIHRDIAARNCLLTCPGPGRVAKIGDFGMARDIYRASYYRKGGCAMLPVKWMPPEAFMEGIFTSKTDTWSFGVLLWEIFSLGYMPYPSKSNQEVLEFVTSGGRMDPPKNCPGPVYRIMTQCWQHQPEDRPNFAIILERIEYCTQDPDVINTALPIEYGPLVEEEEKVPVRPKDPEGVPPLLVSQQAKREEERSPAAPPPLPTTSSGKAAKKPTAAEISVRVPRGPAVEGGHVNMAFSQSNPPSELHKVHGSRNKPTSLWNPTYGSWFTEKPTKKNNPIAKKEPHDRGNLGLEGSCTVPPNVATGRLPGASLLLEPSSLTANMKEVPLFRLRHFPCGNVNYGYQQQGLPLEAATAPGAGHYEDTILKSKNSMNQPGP

How did the IC50 turn out when `COc1cc(P2(=O)CCC(N)CC2)ccc1Nc1ncc(Cl)c(-c2c[nH]c3ccccc23)n1` (single isomer, unassigned) [Example 42, N-[4-(4-amino-1-oxidophosphinan-1-yl)-2-methoxyphenyl]-5-chloro-4-(1H-indol-3-yl)pyrimidin-2-amine] was run?
Its IC50 is 0.083 µM.

Which IC50 does the source give for `COc1cc(P2(=O)CCC(N)CC2)ccc1Nc1ncc(C)c(-c2c[nH]c3ccccc23)n1` (single isomer, unassigned) [Example 43, N-[4-(4-amino-1-oxidophosphinan-1-yl)-2-methoxyphenyl]-4-(1H-indol-3-yl)-5-methylpyrimidin-2-amine] here?
Its IC50 is 0.158 µM.

For `COc1cc(P2(=O)CCC(N)CC2)ccc1Nc1ncc(C)c(-c2c[nH]c3ccccc23)n1` (single isomer, unassigned) [Example 44, N-[4-(4-amino-1-oxidophosphinan-1-yl)-2-methoxyphenyl]-4-(1H-indol-3-yl)-5-methylpyrimidin-2-amine], which IC50 is on record?
The IC50 was 0.02 µM.

How did the IC50 turn out when `COc1cc(N2CCC(N)C(F)C2)ccc1Nc1ncc(Cl)c(-c2c[nH]c3ccccc23)n1` (single isomer, unassigned) [Example 45, (trans)-N-(4-(4-amino-3-fluoropiperidin-1-yl)-2-methoxyphenyl)-5-chloro-4-(1H-indol-3-yl)pyrimidin-2-amine] was run?
Its IC50 is 0.061 µM.

Which IC50 does the source give for `COc1cc(N2CCC(N)C(F)C2)ccc1Nc1ncc(Cl)c(-c2c[nH]c3ccccc23)n1` (single isomer, unassigned) [Example 46, (trans)-N-(4-(4-amino-3-fluoropiperidin-1-yl)-2-methoxyphenyl)-5-chloro-4-(1H-indol-3-yl)pyrimidin-2-amine] here?
The IC50 was 0.039 µM.

For `COc1cc(N2CCC(N)C(F)C2)ccc1Nc1ncc(Cl)c(-c2c[nH]c3ccccc23)n1` (single isomer, unassigned) [Example 50, (cis)-N-(4-(4-amino-3-fluoropiperidin-1-yl)-2-methoxyphenyl)-5-chloro-4-(1H-indol-3-yl)pyrimidin-2-amine], which IC50 is on record?
The IC50 was 0.022 µM.

For `COc1cc(N2CCC(N)C(F)C2)ccc1Nc1ncc(Cl)c(-c2c[nH]c3ccccc23)n1` (single isomer, unassigned) [Example 51, (cis)-N-(4-(4-amino-3-fluoropiperidin-1-yl)-2-methoxyphenyl)-5-chloro-4-(1H-indol-3-yl)pyrimidin-2-amine], which IC50 is on record?
Its IC50 is 0.031 µM.

Which IC50 does the source give for `COc1cc(N2CCC(N3CCN(C)CC3)CC2)ccc1Nc1ncc(F)c(-c2c[nH]c3ccccc23)n1` [Example 7, 5-Fluoro-4-(1H-Indol-3-yl)-N-(2-methoxy-4-(4-(4-methylpiperazin-1-yl)piperidin-1-yl)phenyl)pyrimidin-2-amine] here?
Its IC50 is 0.079 µM.

How did the IC50 turn out when `COc1cc(N2CCC(N(C)C)CC2)ccc1Nc1ncc(Cl)c(-c2c[nH]c3ccccc23)n1` [Example 12, 5-Chloro-N-(4-(4-(dimethylamino)piperidin-1-yl)-2-methoxyphenyl)-4-(1H-indol-3-yl)pyrimidin-2-amine] was run?
Its IC50 is 0.021 µM.

Same assay, conditions: geometric means of multiple test runs, as presented in the priority filings; ATP 30 μM (Km) or 5 mM, not specified which; read-out: ALK Enzyme IC50 (μM)*

For `CNC1CCN(c2ccc(Nc3ncc(Cl)c(-c4c[nH]c5ccccc45)n3)c(OC)c2)CC1` [Example 2, 5-Chloro-4-(1H-indol-3-yl)-N-(2-methoxy-4-(4-(methylamino)piperidin-1-yl)phenyl)pyrimidin-2-amine], which IC50 is on record?
Its IC50 is 0.023 µM.

`COc1cc(N2CCC(N3CCNCC3)CC2)ccc1Nc1ncc(Cl)c(-c2c[nH]c3ccccc23)n1` [Example 3, 5-Chloro-4-(1H-indol-3-yl)-N-(2-methoxy-4-(4-(piperazin-1-yl)piperidin-1-yl)phenyl)pyrimidin-2-amine] was tested. Which IC50 did it give?
Its IC50 is 0.07 µM.

`CNC1CCN(c2ccc(Nc3ncc(C)c(-c4c[nH]c5ccccc45)n3)c(OC)c2)CC1` [Example 4, 4-(1H-Indol-3-yl)-N-(2-methoxy-4-(4-(methylamino)piperidin-1-yl)phenyl)-5-methylpyrimidin-2-amine] was tested. Which IC50 did it give?
Its IC50 is 0.052 µM.

With `COc1cc(N2CCC(N)CC2)ccc1Nc1ncc(C)c(-c2c[nH]c3ccccc23)n1` [Example 5, N-(4-(4-Aminopiperidin-1-yl)-2-methoxyphenyl)-4-(1H-indol-3-yl)-5-methylpyrimidin-2-amine] as the compound, how does the IC50 read?
Its IC50 is 0.03 µM.

How did the IC50 turn out when `COc1cc(N2CCC(NC3CC3)CC2)ccc1Nc1ncc(Cl)c(-c2c[nH]c3ccccc23)n1` [Example 6, 5-Chloro-N-(4-(4-(cyclopropylamino)piperidin-1-yl)-2-methoxyphenyl)-4-(1H-indol-3-yl)pyrimidin-2-amine] was run?
Its IC50 is 0.058 µM.

With `COc1cc(N2CCC(N3CCN(C)CC3)CC2)ccc1Nc1ncc(F)c(-c2c[nH]c3ccccc23)n1` [Example 7, 5-Fluoro-4-(1H-Indol-3-yl)-N-(2-methoxy-4-(4-(4-methylpiperazin-1-yl)piperidin-1-yl)phenyl)pyrimidin-2-amine] as the compound, how does the IC50 read?
The IC50 was 0.041 µM.

`COc1cc(N2CCC(N3CCN(C)CC3)CC2)ccc1Nc1ncc(C(F)(F)F)c(-c2c[nH]c3ccccc23)n1` [Example 8, 4-(1H-Indol-3-yl)-N-(2-methoxy-4-(4-(4-methylpiperazin-1-yl)piperidin-1-yl)phenyl)-5-(trifluoromethyl)pyrimidin-2-amine] was tested. Which IC50 did it give?
The IC50 was 0.061 µM.

How did the IC50 turn out when `COc1cc(N2CCC(N(C)C)CC2)ccc1Nc1ncc(C)c(-c2c[nH]c3ccccc23)n1` [Example 11, N-(4-(4-(Dimethylamino)piperidin-1-yl)-2-methoxyphenyl)-4-(1H-indol-3-yl)-5-methylpyrimidin-2-amine] was run?
The IC50 was 0.086 µM.

`COc1cc(N2CCC(N(C)C)CC2)ccc1Nc1ncc(Cl)c(-c2c[nH]c3ccccc23)n1` [Example 12, 5-Chloro-N-(4-(4-(dimethylamino)piperidin-1-yl)-2-methoxyphenyl)-4-(1H-indol-3-yl)pyrimidin-2-amine] was tested. Which IC50 did it give?
The IC50 was 0.023 µM.

With `COc1cc(N2CCC(N(C)C)CC2)ccc1Nc1ncc(F)c(-c2c[nH]c3ccccc23)n1` [Example 13, N-(4-(4-(Dimethylamino)piperidin-1-yl)-2-methoxyphenyl)-5-fluoro-4-(1H-indol-3-yl)pyrimidin-2-amine] as the compound, how does the IC50 read?
The IC50 was 0.05 µM.

How did the IC50 turn out when `COc1cc(N2CCC(N3CCN(C)CC3)CC2)c(C)cc1Nc1ncc(Cl)c(-c2c[nH]c3ccccc23)n1` [Example 14, 5-Chloro-4-(1H-indol-3-yl)-N-(2-methoxy-5-methyl-4-(4-(4-methylpiperazin-1-yl)piperidin-1-yl)phenyl)pyrimidin-2-amine] was run?
Its IC50 is 0.024 µM.

Which IC50 does the source give for `COc1cc(N2CCC(N3CCN(C)CC3)CC2)c(C)cc1Nc1ncc(C)c(-c2c[nH]c3ccccc23)n1` [Example 15, 4-(1H-Indol-3-yl)-N-(2-methoxy-5-methyl-4-(4-(4-methylpiperazin-1-yl)piperidin-1-yl)phenyl)-5-methylpyrimidin-2-amine] here?
Its IC50 is 0.144 µM.

With `COc1cc(N2CCC(N(C)C)CC2)c(C)cc1Nc1ncc(Cl)c(-c2c[nH]c3ccccc23)n1` [Example 16, 5-Chloro-N-(4-(4-(dimethylamino)piperidin-1-yl)-2-methoxy-5-methylphenyl)-4-(1H-indol-3-yl)pyrimidin-2-amine] as the compound, how does the IC50 read?
Its IC50 is 0.019 µM.

With `COc1cc(N2CCC(N(C)C)CC2)c(C)cc1Nc1ncc(C)c(-c2c[nH]c3ccccc23)n1` [Example 17, N-(4-(4-(Dimethylamino)piperidin-1-yl)-2-methoxy-5-methylphenyl)-4-(1H-indol-3-yl)-5-methylpyrimidin-2-amine] as the compound, how does the IC50 read?
Its IC50 is 0.047 µM.

With `COc1cc(N2CCC(N)CC2)c(C)cc1Nc1ncc(Cl)c(-c2c[nH]c3ccccc23)n1` [Example 18, N-(4-(4-Aminopiperidin-1-yl)-2-methoxy-5-methylphenyl)-5-chloro-4-(1H-indol-3-yl)pyrimidin-2-amine] as the compound, how does the IC50 read?
Its IC50 is 0.027 µM.

With `COc1cc(N2CCC(N)CC2)c(C)cc1Nc1ncc(C)c(-c2c[nH]c3ccccc23)n1` [Example 19, N-(4-(4-aminopiperidin-1-yl)-2-methoxy-5-methylphenyl)-4-(1H-indol-3-yl)-5-methylpyrimidin-2-amine] as the compound, how does the IC50 read?
Its IC50 is 0.052 µM.

How did the IC50 turn out when `COc1cc(N2CCC(NCCO)CC2)ccc1Nc1ncc(Cl)c(-c2c[nH]c3ccccc23)n1` [Example 20, 2-(1-(4-(5-Chloro-4-(1H-indol-3-yl)pyrimidin-2-ylamino)-3-methoxyphenyl)piperidin-4-ylamino)ethanol] was run?
Its IC50 is 0.029 µM.

How did the IC50 turn out when `COc1cc(N2CCC(N3CCN(S(C)(=O)=O)CC3)CC2)ccc1Nc1ncc(Cl)c(-c2c[nH]c3ccccc23)n1` [Example 21, 5-Chloro-4-(1H-indol-3-yl)-N-(2-methoxy-4-{4-[4-(methylsulfonyl)piperazin-1-yl]piperidin-1-yl}phenyl)pyrimidin-2-amine] was run?
Its IC50 is 0.235 µM.

Which IC50 does the source give for `COc1cc(N2CCC(N3CC[C@@H](F)C3)CC2)ccc1Nc1ncc(Cl)c(-c2c[nH]c3ccccc23)n1` [Example 22, 5-Chloro-N-(4-{4-[(3R)-3-fluoropyrrolidin-1-yl]piperidin-1-yl}-2-methoxyphenyl)-4-(1H-indol-3-yl)pyrimidin-2-amine] here?
Its IC50 is 0.057 µM.

`COc1cc(N2CCC(N3CCN(C(C)C)CC3)CC2)ccc1Nc1ncc(Cl)c(-c2c[nH]c3ccccc23)n1` [Example 23, 5-Chloro-4-(1H-indol-3-yl)-N-(4-(4-(4-isopropylpiperazin-1-yl)piperidin-1-yl)-2-methoxyphenyl)pyrimidin-2-amine] was tested. Which IC50 did it give?
Its IC50 is 0.028 µM.
